{"source": "patent US20250129430A1", "about": "“HIGH ATP-AFFINITY PROTEIN AS THERAPEUTIC TARGET FOR INTRACTABLE CANCER MOLECULAR SUBTYPES AND INHIBITOR THEREOF” (VeraVerse Co., Ltd., priority 2021, published 2025)", "format_in_all_cases": "cell-based, human", "key": {"[1]": {"tested_on": "AGS", "assay": "Cell viability drug screen, 12-point dose-response AUC", "conditions": "AGS cells (non-SEM subtype); 72 hours", "in_short": "(§1)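 Viability: luminescence (Glo kit, 15 min RT), normalized to 0.5% DMSO vehicle. Dosing: half-log, 12 concentrations, 72 h. Cells: 5×10^3/well, treated 24 h after plating. Value: trapezoidal AUC, mean of repeats.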"}, "[2]": {"tested_on": "Hs746T", "assay": "Cell viability drug screen, 12-point dose-response AUC", "conditions": "Hs746T cells (SEM subtype); 72 hours", "in_short": "(§2)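 AUC values represent the area under DMSO-normalized 12-point curves, computed by trapezoid rule and averaged over repeated experiments. Each EMT-type gastric line was exposed to half-log serial concentrations for 72 h at 37 °C, and viability was measured with a Glo luminescence kit.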"}, "[3]": {"tested_on": "KATO3", "assay": "Cell viability drug screen, 12-point dose-response AUC", "conditions": "KATO3 cells; 72 hours", "in_short": "as §2"}, "[4]": {"tested_on": "MKN1", "assay": "Cell viability drug screen, 12-point dose-response AUC", "conditions": "MKN1 cells; 72 hours", "in_short": "as §2"}, "[5]": {"tested_on": "MKN28", "assay": "Cell viability drug screen, 12-point dose-response AUC", "conditions": "MKN28 cells; 72 hours", "in_short": "as §2"}, "[6]": {"tested_on": "MKN45", "assay": "Cell viability drug screen, 12-point dose-response AUC", "conditions": "MKN45 cells (non-SEM subtype); 72 hours", "in_short": "as §1"}, "[7]": {"tested_on": "MKN74", "assay": "Cell viability drug screen, 12-point dose-response AUC", "conditions": "MKN74 cells; 72 hours", "in_short": "as §1"}, "[8]": {"tested_on": "NCC19", "assay": "Cell viability drug screen, 12-point dose-response AUC", "conditions": "NCC19 cells; 72 hours", "in_short": "as §2"}, "[9]": {"tested_on": "NCC20", "assay": "Cell viability drug screen, 12-point dose-response AUC", "conditions": "NCC20 cells; 72 hours", "in_short": "as §2"}, "[10]": {"tested_on": "NCC24", "assay": "Cell viability drug screen, 12-point dose-response AUC", "conditions": "NCC24 cells; 72 hours", "in_short": "as §2"}, "[11]": {"tested_on": "NCC59", "assay": "Cell viability drug screen, 12-point dose-response AUC", "conditions": "NCC59 cells; 72 hours", "in_short": "as §2"}, "[12]": {"tested_on": "NCI_N87", "assay": "Cell viability drug screen, 12-point dose-response AUC", "conditions": "NCI_N87 cells; 72 hours", "in_short": "as §2"}, "[13]": {"tested_on": "OCUM1", "assay": "Cell viability drug screen, 12-point dose-response AUC", "conditions": "OCUM1 cells; 72 hours", "in_short": "as §2"}, "[14]": {"tested_on": "SK4", "assay": "Cell viability drug screen, 12-point dose-response AUC", "conditions": "SK4 cells (SEM subtype); 72 hours", "in_short": "as §2"}, "[15]": {"tested_on": "SNU16", "assay": "Cell viability drug screen, 12-point dose-response AUC", "conditions": "SNU16 cells; 72 hours", "in_short": "as §2"}, "[16]": {"tested_on": "SNU1750", "assay": "Cell viability drug screen, 12-point dose-response AUC", "conditions": "SNU1750 cells (SEM subtype); 72 hours", "in_short": "as §2"}, "[17]": {"tested_on": "SNU1967", "assay": "Cell viability drug screen, 12-point dose-response AUC", "conditions": "SNU1967 cells; 72 hours", "in_short": "as §2"}, "[18]": {"tested_on": "SNU1", "assay": "Cell viability drug screen, 12-point dose-response AUC", "conditions": "SNU1 cells; 72 hours", "in_short": "as §2"}, "[19]": {"tested_on": "SNU216", "assay": "Cell viability drug screen, 12-point dose-response AUC", "conditions": "SNU216 cells (non-SEM subtype); 72 hours", "in_short": "as §1"}, "[20]": {"tested_on": "SNU484", "assay": "Cell viability drug screen, 12-point dose-response AUC", "conditions": "SNU484 cells (SEM subtype); 72 hours", "in_short": "as §2"}, "[21]": {"tested_on": "SNU601", "assay": "Cell viability drug screen, 12-point dose-response AUC", "conditions": "SNU601 cells; 72 hours", "in_short": "as §2"}, "[22]": {"tested_on": "SNU620", "assay": "Cell viability drug screen, 12-point dose-response AUC", "conditions": "SNU620 cells; 72 hours", "in_short": "as §2"}, "[23]": {"tested_on": "SNU638", "assay": "Cell viability drug screen, 12-point dose-response AUC", "conditions": "SNU638 cells; 72 hours", "in_short": "as §2"}, "[24]": {"tested_on": "SNU668", "assay": "Cell viability drug screen, 12-point dose-response AUC", "conditions": "SNU668 cells (SEM subtype); 72 hours", "in_short": "as §2"}, "[25]": {"tested_on": "SNU719", "assay": "Cell viability drug screen, 12-point dose-response AUC", "conditions": "SNU719 cells; 72 hours", "in_short": "as §1"}, "[26]": {"tested_on": "YCC11", "assay": "Cell viability drug screen, 12-point dose-response AUC", "conditions": "YCC11 cells (SEM subtype); 72 hours", "in_short": "as §2"}, "[27]": {"tested_on": "YCC2", "assay": "Cell viability drug screen, 12-point dose-response AUC", "conditions": "YCC2 cells; 72 hours", "in_short": "as §2"}, "[28]": {"tested_on": "YCC3", "assay": "Cell viability drug screen, 12-point dose-response AUC", "conditions": "YCC3 cells; 72 hours", "in_short": "as §2"}, "[29]": {"tested_on": "FU97", "assay": "Cell viability drug screen, 12-point dose-response AUC", "parameters": "Average Area Under the Viability Curve (AUC), AUC norm value: scale not given here", "conditions": "FU97 cells; 72 hours", "in_short": "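Trapezoidal AUC of a 12-point, DMSO-normalized dose-response curve. Luminescent viability was measured after 72 h of exposure at 37° C to half-log serial dilutions (0.5% DMSO control), dosed 24 h after plating FU97 cells at 5×10^3 per well.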"}, "[30]": {"tested_on": "non-SEM-type gastric cancer cell line", "assay": "Cell viability drug screen, AUC summary over non-SEM-type lines", "conditions": "in the non-SEM-type gastric cancer cell line"}}, "note": "Where a name gives a salt, the structure may show the parent alone."}
{"smiles": "CCCCc1oc2ccc(NS(C)(=O)=O)cc2c1C(=O)c1ccc(OCCCN(CCCC)CCCC)cc1", "note": "[Dronedarone HCl (Multaq), Dronedarone HCl]", "values": [{"measurement": "Average Area Under the Viability Curve (AUC), AUC norm value", "setting": "[1]", "result": "−0.6415"}, {"measurement": "Average Area Under the Viability Curve (AUC), AUC norm value", "setting": "[2]", "result": "−0.03562"}, {"measurement": "Average Area Under the Viability Curve (AUC), AUC norm value", "setting": "[3]", "result": 0.1721}, {"measurement": "Average Area Under the Viability Curve (AUC), AUC norm value", "setting": "[4]", "result": 0}, {"measurement": "Average Area Under the Viability Curve (AUC), AUC norm value", "setting": "[5]", "result": "−0.1927"}, {"measurement": "Average Area Under the Viability Curve (AUC), AUC norm value", "setting": "[6]", "result": 0.6772}, {"measurement": "Average Area Under the Viability Curve (AUC), AUC norm value", "setting": "[7]", "result": "−1.381"}, {"measurement": "Average Area Under the Viability Curve (AUC), AUC norm value", "setting": "[8]", "result": "−0.3711"}, {"measurement": "Average Area Under the Viability Curve (AUC), AUC norm value", "setting": "[9]", "result": "−0.2985"}, {"measurement": "Average Area Under the Viability Curve (AUC), AUC norm value", "setting": "[10]", "result": 1.044}, {"measurement": "Average Area Under the Viability Curve (AUC), AUC norm value", "setting": "[11]", "result": 0.6769}, {"measurement": "Average Area Under the Viability Curve (AUC), AUC norm value", "setting": "[12]", "result": "−0.08952"}, {"measurement": "Average Area Under the Viability Curve (AUC), AUC norm value", "setting": "[13]", "result": 0.02571}, {"measurement": "Average Area Under the Viability Curve (AUC), AUC norm value", "setting": "[14]", "result": "−0.3488"}, {"measurement": "Average Area Under the Viability Curve (AUC), AUC norm value", "setting": "[15]", "result": "−0.2149"}, {"measurement": "Average Area Under the Viability Curve (AUC), AUC norm value", "setting": "[16]", "result": 0.06657}, {"measurement": "Average Area Under the Viability Curve (AUC), AUC norm value", "setting": "[17]", "result": 0.1919}, {"measurement": "Average Area Under the Viability Curve (AUC), AUC norm value", "setting": "[18]", "result": 1.295}, {"measurement": "Average Area Under the Viability Curve (AUC), AUC norm value", "setting": "[19]", "result": 0.08211}, {"measurement": "Average Area Under the Viability Curve (AUC), AUC norm value", "setting": "[20]", "result": "−0.2497"}, {"measurement": "Average Area Under the Viability Curve (AUC), AUC norm value", "setting": "[21]", "result": 3.848}, {"measurement": "Average Area Under the Viability Curve (AUC), AUC norm value", "setting": "[22]", "result": "−0.3353"}, {"measurement": "Average Area Under the Viability Curve (AUC), AUC norm value", "setting": "[23]", "result": "−0.5649"}, {"measurement": "Average Area Under the Viability Curve (AUC), AUC norm value", "setting": "[24]", "result": 0.4123}, {"measurement": "Average Area Under the Viability Curve (AUC), AUC norm value", "setting": "[25]", "result": 1.291}, {"measurement": "Average Area Under the Viability Curve (AUC), AUC norm value", "setting": "[26]", "result": "−0.521"}, {"measurement": "Average Area Under the Viability Curve (AUC), AUC norm value", "setting": "[27]", "result": "−0.08246"}, {"measurement": "Average Area Under the Viability Curve (AUC), AUC norm value", "setting": "[28]", "result": 0.8816}, {"measurement": "Average Area Under the Viability Curve (AUC), AUC norm value", "setting": "[29]", "result": 0.3807}, {"measurement": "AUC value", "setting": "[30]", "result": "high"}]}
